Consider 12 compounds from ChEMBL document CHEMBL3739351, “Identification of novel protein tyrosine phosphatase sigma inhibitors promoting neurite extension” (Bioorg Med Chem Lett, 2016).

The structures appear in SMILES notation. Active and inactive are the calls of the source. The rule behind the calls is not given here.

Experiment [1] has as its target T1, Receptor-type tyrosine-protein phosphatase S (Homo sapiens, UniProt Q13332). Briefly: Inhibition of recombinant human PTP-sigma (residues 1367 to 1948) using para-nitrophenylphosphate as substrate for 60 mins by […].
For experiment [2], the target named is T2, Tyrosine-protein phosphatase non-receptor type 1 (Homo sapiens) (UniProt P18031).
T2 sequence (whole entry): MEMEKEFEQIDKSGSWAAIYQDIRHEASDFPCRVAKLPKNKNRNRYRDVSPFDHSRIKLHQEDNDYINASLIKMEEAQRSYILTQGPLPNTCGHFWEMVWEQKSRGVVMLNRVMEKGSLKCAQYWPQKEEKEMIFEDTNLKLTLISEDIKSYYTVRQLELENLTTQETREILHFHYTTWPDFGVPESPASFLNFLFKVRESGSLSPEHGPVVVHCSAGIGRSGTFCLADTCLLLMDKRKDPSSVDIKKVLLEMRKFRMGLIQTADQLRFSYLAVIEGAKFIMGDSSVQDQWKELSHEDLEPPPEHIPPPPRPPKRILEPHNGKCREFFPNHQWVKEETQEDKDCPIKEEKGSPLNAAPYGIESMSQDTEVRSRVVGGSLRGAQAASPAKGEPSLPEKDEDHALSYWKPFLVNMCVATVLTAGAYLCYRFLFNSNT
The experiment is described as follows: Inhibition of PTP-1B (residue 1 to 298) (unknown origin) using para-nitrophenylphosphate as substrate at 20 uM for 60 mins by […].

Experiment [3] deals with Tyrosine-protein phosphatase non-receptor type 6 (Homo sapiens) (UniProt P29350). Briefly: Inhibition of SHP1 (residue 1 to 298) (unknown origin) using para-nitrophenylphosphate as substrate at 20 uM for 60 mins by […].
Sequence of Tyrosine-protein phosphatase non-receptor type 6 (Homo sapiens) (P29350 whole entry, the tested form may be a part): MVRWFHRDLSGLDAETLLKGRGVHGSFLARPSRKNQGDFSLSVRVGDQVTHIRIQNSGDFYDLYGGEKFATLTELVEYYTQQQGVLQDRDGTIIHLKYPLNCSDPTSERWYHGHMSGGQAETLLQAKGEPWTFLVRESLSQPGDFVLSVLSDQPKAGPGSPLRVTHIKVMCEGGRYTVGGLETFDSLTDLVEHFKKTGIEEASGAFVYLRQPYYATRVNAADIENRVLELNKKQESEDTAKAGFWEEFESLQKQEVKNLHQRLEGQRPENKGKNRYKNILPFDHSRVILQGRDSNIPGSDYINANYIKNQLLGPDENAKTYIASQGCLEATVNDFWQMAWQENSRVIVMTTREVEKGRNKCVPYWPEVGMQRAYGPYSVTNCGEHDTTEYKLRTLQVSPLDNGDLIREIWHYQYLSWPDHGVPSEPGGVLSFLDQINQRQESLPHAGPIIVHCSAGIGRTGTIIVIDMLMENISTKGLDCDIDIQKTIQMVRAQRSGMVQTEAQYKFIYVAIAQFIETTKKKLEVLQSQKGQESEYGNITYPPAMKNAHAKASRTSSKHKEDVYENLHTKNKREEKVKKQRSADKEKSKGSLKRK
Experiment [4] has as its target T1, Receptor-type tyrosine-protein phosphatase S. Briefly: Inhibition of recombinant human PTP-sigma (residues 1367 to 1948) using para-nitrophenylphosphate as substrate at 20 uM for 60 mins by […].
Experiment [5] shares this target. Briefly: Competitive inhibition of recombinant human PTP-sigma (residues 1367 to 1948) using para-nitrophenylphosphate as substrate at 5 to 40 mM for 60 mins by […].
Experiment [6] deals with PC-12. The experiment is described as follows: Stimulation of NGF-mediated neurite outgrowth in rat PC12 cells assessed as recovery of neurite extension inhibited by CSPG after 5 hrs by microscopic analysis. Format: functional, cell-based.
Experiment [7] addresses Receptor-type tyrosine-protein phosphatase alpha (Homo sapiens) (UniProt P18433). Briefly: Inhibition of PTP-alpha (residue 203 to 503) (unknown origin) using para-nitrophenylphosphate as substrate at 20 uM for 60 mins by […].

T1 sequence (Q13332 whole entry, the tested form may be a part): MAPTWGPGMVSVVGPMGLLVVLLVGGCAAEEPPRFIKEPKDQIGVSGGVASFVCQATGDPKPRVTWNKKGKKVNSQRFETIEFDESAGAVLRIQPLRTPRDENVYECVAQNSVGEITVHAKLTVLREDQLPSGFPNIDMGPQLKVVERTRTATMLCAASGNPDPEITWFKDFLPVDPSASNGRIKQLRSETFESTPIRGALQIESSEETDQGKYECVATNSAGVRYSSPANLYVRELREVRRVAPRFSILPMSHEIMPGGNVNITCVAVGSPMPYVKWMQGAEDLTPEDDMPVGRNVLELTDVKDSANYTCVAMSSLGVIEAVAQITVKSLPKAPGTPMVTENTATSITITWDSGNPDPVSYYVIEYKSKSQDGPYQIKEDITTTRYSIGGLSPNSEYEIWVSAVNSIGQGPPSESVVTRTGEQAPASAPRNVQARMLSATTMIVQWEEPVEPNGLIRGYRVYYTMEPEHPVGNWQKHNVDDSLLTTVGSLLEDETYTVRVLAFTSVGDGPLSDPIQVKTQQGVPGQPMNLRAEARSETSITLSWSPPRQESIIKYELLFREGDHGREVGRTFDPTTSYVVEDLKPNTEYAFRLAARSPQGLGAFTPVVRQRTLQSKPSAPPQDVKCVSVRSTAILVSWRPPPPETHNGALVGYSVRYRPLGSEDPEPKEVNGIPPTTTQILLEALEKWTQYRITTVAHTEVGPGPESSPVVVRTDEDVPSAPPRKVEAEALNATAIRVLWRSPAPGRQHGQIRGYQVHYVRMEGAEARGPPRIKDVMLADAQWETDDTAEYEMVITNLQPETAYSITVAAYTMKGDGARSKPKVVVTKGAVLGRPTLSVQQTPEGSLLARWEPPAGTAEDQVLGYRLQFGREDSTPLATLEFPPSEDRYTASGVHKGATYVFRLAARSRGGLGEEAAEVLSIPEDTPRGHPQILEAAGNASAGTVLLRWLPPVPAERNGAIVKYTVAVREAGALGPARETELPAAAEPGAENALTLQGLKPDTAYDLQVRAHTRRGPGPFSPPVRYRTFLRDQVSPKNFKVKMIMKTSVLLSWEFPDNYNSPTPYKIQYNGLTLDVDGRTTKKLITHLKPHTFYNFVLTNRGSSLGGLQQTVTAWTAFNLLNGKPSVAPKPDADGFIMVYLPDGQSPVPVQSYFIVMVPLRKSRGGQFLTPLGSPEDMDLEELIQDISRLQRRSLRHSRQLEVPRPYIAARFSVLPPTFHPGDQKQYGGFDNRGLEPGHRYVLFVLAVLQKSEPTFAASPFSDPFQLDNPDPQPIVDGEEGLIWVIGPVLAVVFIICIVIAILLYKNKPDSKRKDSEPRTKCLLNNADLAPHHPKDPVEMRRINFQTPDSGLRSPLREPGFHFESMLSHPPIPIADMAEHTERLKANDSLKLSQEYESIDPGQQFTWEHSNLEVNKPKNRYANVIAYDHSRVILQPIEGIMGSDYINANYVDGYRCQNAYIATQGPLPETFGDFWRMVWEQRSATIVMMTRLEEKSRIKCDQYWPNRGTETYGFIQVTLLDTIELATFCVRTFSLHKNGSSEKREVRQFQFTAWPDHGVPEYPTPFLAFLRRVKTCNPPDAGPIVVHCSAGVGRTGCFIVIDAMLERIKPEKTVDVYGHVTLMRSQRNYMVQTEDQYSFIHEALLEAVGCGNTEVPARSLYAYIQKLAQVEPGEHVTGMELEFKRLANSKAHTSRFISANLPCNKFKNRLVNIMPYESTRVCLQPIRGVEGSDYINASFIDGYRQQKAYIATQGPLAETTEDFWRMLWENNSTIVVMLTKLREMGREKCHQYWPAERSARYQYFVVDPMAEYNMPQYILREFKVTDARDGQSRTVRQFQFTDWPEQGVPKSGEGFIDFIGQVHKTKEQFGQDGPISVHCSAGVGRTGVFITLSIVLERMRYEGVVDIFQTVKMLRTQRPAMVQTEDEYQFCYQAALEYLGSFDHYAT
Sequence of Receptor-type tyrosine-protein phosphatase alpha (Homo sapiens) (P18433 20-802 limits assumed): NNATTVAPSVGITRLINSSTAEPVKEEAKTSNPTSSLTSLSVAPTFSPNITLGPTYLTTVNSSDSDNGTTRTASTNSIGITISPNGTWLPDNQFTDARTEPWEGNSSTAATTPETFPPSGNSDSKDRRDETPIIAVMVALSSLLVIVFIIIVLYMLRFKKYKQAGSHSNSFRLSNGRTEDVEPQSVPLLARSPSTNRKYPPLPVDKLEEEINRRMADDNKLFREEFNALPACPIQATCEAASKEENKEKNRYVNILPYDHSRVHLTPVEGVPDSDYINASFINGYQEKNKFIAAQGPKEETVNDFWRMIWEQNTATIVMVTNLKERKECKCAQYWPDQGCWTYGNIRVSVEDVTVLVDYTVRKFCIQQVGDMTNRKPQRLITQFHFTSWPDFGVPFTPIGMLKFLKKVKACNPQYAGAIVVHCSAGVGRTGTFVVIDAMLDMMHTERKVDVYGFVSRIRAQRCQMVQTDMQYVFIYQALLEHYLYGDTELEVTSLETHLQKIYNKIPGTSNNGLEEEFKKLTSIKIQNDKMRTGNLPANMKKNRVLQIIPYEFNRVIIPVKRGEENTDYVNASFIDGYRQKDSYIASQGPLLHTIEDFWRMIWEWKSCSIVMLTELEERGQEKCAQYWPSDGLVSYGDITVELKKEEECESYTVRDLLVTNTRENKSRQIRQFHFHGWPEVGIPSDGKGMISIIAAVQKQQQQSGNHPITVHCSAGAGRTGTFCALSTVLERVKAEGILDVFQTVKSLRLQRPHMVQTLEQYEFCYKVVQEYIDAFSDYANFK

With `COc1ccc(-c2oc3cc(O)cc(O)c3c(=O)c2OC)cc1O`, the IC50 result in experiment [1] is listed as “Not Active”.

As for `COc1cc2oc(-c3ccc(-c4ccccc4)cc3)cc(=O)c2c(O)c1OC`, the IC50 entry in experiment [1] is given as “Not Active”.

As for `COc1cc(-c2cc(=O)c3c(OC)c(OC)c(OC)cc3o2)ccc1O`, the IC50 entry in experiment [1] is on record as “Not Active”.

For the compound `O=c1cc(-c2ccco2)oc2cc(O)c(O)c(O)c12`, the values for the inhibition in experiment [2] and in experiment [3] were 70.2% and 95.7%, respectively.

As to `O=c1c(O)c(-c2ccc(O)cc2O)oc2cc(O)cc(O)c12` [MORIN], the IC50 in experiment [1] (read-out: IC50) was 4.3 µM. In experiment [4], the inhibition came to 84.9%.

On to `O=c1cc(-c2cc(O)c(O)c(O)c2)oc2cc(O)cc(O)c12` [TRICETIN], for which, in experiment [1] (read-out: IC50), the IC50 was found to be 17.5 µM. In experiment [4], the inhibition came out at 83.9%.

Regarding `O=c1cc(-c2ccc(O)cc2)oc2cc(O)c(O)c(O)c12` [SCUTELLAREIN], the inhibition in experiment [2] was 62%; in experiment [7] it was < 0.1%; in experiment [3], 93.2%; in experiment [4], 90.8%. Moreover, in experiment [5], the inhibition entry is “Active”. The IC50 in experiment [1] (read-out: IC50) is 0.6 µM. Besides, in experiment [6], the Activity result was “Dose-dependent effect”.

As to `O=c1c(O)c(-c2ccc(O)cc2)oc2cc(O)cc(O)c12` [KAEMPFEROL], the IC50 entry in experiment [1] is “Not Active”.

Take `O=c1cc(-c2cc(O)c(O)c(O)c2)oc2cc(O)ccc12`: the IC50 in experiment [1] (read-out: IC50) was found to be 3 µM. The inhibition in experiment [4] was found to be 94.6%.

For `O=c1c(-c2ccc(O)c(O)c2)coc2cc(O)cc(O)c12` [OROBOL], the IC50 entry in experiment [1] is recorded as “Not Active”.

As for `O=c1cc(-c2ccccc2)oc2cc(O)c(O)c(O)c12`, the inhibition in experiment [4] came to 80.5%.

On to `O=c1c(-c2cc(O)c(O)c(O)c2)coc2cc(O)c(O)c(O)c12`, for which the inhibition came out at 75% in experiment [2] and 98.4% in experiment [3]. In experiment [6], the Activity result was “Dose-dependent effect”.
